Values joined by “and” are separate entries in the source; they are usually repeats but may differ in a detail not shown here. Identical values can stand only once.
Assays:
broad panel of kinases [1] = target: broad panel of kinases (Homo sapiens, UniProt P42681); assay type: binding; details: TXK; 1 μM
broad panel of kinases [2] = target: broad panel of kinases (Homo sapiens, UniProt P22607, G697C); assay type: binding; details: FGFR3(G697C); 1 μM
AMPKa1 = AMPKa1 (Homo sapiens (Human), UniProt Q13131); assay: KINATIV assay; assay type: cell-based; details: 1 μM, 90 minutes, BCWM.1 cells
Procedure, shortened: (§1)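 ATP-biotin probe labeling of whole-cell lysates, followed by ACTIVX identification/quantitation of bound kinases; compounds in duplicate.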

PEK = PEK (Homo sapiens (Human), UniProt Q9NZJ5); assay: KINATIV assay; assay type: cell-based; details: 1 μM, 90 minutes, BCWM.1 cells
Procedure, shortened: as §1

BARK1 = BARK1 (Homo sapiens (Human), UniProt P25098); assay: KINATIV assay; assay type: cell-based; details: 1 μM, 90 minutes, BCWM.1 cells
Procedure, shortened: as §1

MAP3K2 = MAP3K2 (Homo sapiens (Human), UniProt Q9Y2U5); assay: KINATIV assay; assay type: cell-based; details: 1 μM, 90 minutes, BCWM.1 cells
Procedure, shortened: as §1

FGR = FGR (Homo sapiens (Human), UniProt P09769); assay: KINATIV assay; assay type: cell-based; details: 1 μM, 90 minutes, BCWM.1 cells
Procedure, shortened: as §1

ZC2/TNIK = ZC2/TNIK (Homo sapiens (Human), UniProt Q9UKE5); assay: KINATIV assay; assay type: cell-based; details: 1 μM, 90 minutes, BCWM.1 cells
Procedure, shortened: as §1

MST4, YSK1 = assay: KINATIV assay; assay type: cell-based; details: 1 μM, 90 minutes, BCWM.1 cells
Procedure, shortened: as §1

CDK11, CDK8 = assay: KINATIV assay; assay type: cell-based; details: 1 μM, 90 minutes, BCWM.1 cells
Procedure, shortened: as §1

MAST1, MAST2 = assay: KINATIV assay; assay type: cell-based; details: 1 μM, 90 minutes, BCWM.1 cells
Procedure, shortened: as §1

MAP3K2, MAP3K3 = assay: KINATIV assay; assay type: cell-based; details: 1 μM, 90 minutes, BCWM.1 cells
Procedure, shortened: as §1

PI4KA, PI4KAP2 = assay: KINATIV assay; assay type: cell-based; details: 1 μM, 90 minutes, BCWM.1 cells
Procedure, shortened: as §1

SRC = SRC (Homo sapiens (Human), UniProt P12931); assay: KINATIV assay; assay type: cell-based; details: 1 μM, 90 minutes, BCWM.1 cells
Procedure, shortened: as §1

MST1 = MST1 (Homo sapiens (Human), UniProt Q13043); assay: KINATIV assay; assay type: cell-based; details: 1 μM, 90 minutes, BCWM.1 cells
Procedure, shortened: as §1

FYN, SRC, YES = assay: KINATIV assay; assay type: cell-based; details: 1 μM, 90 minutes, BCWM.1 cells
Procedure, shortened: as §1

CDK9 = CDK9 (Homo sapiens (Human), UniProt P50750); assay: KINATIV assay; assay type: cell-based; details: 1 μM, 90 minutes, BCWM.1 cells
Procedure, shortened: as §1

NEK7 = NEK7 (Homo sapiens (Human), UniProt Q8TDX7); assay: KINATIV assay; assay type: cell-based; details: 1 μM, 90 minutes, BCWM.1 cells
Procedure, shortened: as §1

MST4 = MST4 (Homo sapiens (Human), UniProt Q9P289); assay: KINATIV assay; assay type: cell-based; details: 1 μM, 90 minutes, BCWM.1 cells
Sequence of MST4 (Q9P289 whole entry): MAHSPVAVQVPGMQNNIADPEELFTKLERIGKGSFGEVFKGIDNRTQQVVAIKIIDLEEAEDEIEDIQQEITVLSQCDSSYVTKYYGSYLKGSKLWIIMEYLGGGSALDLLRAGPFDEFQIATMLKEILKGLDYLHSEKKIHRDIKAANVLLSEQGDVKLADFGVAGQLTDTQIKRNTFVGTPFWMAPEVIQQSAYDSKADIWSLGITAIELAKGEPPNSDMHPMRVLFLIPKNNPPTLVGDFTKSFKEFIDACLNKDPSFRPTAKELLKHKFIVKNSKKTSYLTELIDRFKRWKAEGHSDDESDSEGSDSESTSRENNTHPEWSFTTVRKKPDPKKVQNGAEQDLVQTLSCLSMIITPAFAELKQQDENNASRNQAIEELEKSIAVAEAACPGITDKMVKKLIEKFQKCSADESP
Procedure, shortened: as §1

RSK2 domain2 = RSK2 domain2 (Homo sapiens (Human), UniProt P51812); assay: KINATIV assay; assay type: cell-based; details: 1 μM, 90 minutes, BCWM.1 cells
Procedure, shortened: as §1

JAK1 = JAK1 (Homo sapiens (Human), UniProt P23458); assay: KINATIV assay; assay type: cell-based; details: 1 μM, 90 minutes, BCWM.1 cells
Procedure, shortened: as §1

CDK4 = CDK4 (Homo sapiens (Human), UniProt P11802); assay: KINATIV assay; assay type: cell-based; details: 1 μM, 90 minutes, BCWM.1 cells
Procedure, shortened: as §1

GSK3B = GSK3B (Homo sapiens (Human), UniProt P49841); assay: KINATIV assay; assay type: cell-based; details: GSK3B; 1 μM, 90 minutes, BCWM.1 cells
Sequence of GSK3B (P49841 whole entry): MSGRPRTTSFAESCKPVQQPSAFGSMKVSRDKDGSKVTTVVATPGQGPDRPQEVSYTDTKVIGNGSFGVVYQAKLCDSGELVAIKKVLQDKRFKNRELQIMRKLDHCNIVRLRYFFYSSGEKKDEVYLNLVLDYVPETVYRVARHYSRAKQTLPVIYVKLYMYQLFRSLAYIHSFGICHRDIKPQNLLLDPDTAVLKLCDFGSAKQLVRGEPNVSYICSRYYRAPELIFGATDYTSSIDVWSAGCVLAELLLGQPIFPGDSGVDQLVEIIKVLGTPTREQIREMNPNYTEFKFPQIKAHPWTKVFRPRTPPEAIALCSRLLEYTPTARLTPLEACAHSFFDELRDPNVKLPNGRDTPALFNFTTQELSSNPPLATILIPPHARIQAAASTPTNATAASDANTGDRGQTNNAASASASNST
Procedure, shortened: as §1

CASK = CASK (Homo sapiens (Human), UniProt O14936); assay: KINATIV assay; assay type: cell-based; details: 1 μM, 90 minutes, BCWM.1 cells
Procedure, shortened: as §1

LYN = LYN (Homo sapiens (Human), UniProt P07948); assay: KINATIV assay; assay type: cell-based; details: 1 μM, 90 minutes, BCWM.1 cells
Sequence of LYN (P07948 whole entry): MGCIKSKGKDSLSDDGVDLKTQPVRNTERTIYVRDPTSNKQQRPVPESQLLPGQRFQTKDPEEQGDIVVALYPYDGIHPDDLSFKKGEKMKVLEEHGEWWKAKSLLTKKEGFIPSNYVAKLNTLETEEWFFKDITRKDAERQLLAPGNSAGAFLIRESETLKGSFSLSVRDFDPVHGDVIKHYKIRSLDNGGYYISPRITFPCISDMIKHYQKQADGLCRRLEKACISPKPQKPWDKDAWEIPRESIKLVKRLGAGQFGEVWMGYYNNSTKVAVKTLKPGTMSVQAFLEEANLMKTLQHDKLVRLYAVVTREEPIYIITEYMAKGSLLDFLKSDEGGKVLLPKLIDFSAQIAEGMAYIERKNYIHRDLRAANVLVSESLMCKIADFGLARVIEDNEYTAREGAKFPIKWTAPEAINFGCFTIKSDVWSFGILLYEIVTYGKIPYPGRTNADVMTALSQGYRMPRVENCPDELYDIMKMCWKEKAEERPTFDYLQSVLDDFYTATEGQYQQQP
Procedure, shortened: as §1

p70S6Kb = p70S6Kb (Homo sapiens (Human), UniProt Q9UBS0); assay: KINATIV assay; assay type: cell-based; details: 1 μM, 90 minutes, BCWM.1 cells
Sequence of p70S6Kb (Q9UBS0 whole entry): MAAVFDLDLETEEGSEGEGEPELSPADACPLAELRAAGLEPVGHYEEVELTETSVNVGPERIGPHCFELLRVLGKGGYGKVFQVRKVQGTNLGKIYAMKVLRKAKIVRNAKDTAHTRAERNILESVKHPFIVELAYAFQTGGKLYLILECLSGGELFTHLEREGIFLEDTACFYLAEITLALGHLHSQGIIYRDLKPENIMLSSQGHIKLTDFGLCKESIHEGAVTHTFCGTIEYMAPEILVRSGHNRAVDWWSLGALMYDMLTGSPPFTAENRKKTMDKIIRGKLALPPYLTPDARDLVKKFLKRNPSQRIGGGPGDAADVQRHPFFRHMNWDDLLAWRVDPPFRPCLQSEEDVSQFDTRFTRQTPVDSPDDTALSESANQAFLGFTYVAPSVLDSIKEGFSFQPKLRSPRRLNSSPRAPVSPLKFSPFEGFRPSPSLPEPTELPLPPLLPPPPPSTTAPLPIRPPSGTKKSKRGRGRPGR
Procedure, shortened: as §1

SRPK1, SRPK2 = assay: KINATIV assay; assay type: cell-based; details: 1 μM, 90 minutes, BCWM.1 cells
Procedure, shortened: as §1

MLK3 = MLK3 (Homo sapiens (Human), UniProt Q16584); assay: KINATIV assay; assay type: cell-based; details: 1 μM, 90 minutes, BCWM.1 cells
Procedure, shortened: as §1

ABL, ARG = assay: KINATIV assay; assay type: cell-based; details: 1 μM, 90 minutes, BCWM.1 cells
Procedure, shortened: as §1

PIK3CD = PIK3CD (Homo sapiens (Human), UniProt O00329); assay: KINATIV assay; assay type: cell-based; details: 1 μM, 90 minutes, BCWM.1 cells
Procedure, shortened: as §1

PI4KB = PI4KB (Homo sapiens (Human), UniProt Q9UBF8); assay: KINATIV assay; assay type: cell-based; details: 1 μM, 90 minutes, BCWM.1 cells
Sequence of PI4KB (Q9UBF8 whole entry): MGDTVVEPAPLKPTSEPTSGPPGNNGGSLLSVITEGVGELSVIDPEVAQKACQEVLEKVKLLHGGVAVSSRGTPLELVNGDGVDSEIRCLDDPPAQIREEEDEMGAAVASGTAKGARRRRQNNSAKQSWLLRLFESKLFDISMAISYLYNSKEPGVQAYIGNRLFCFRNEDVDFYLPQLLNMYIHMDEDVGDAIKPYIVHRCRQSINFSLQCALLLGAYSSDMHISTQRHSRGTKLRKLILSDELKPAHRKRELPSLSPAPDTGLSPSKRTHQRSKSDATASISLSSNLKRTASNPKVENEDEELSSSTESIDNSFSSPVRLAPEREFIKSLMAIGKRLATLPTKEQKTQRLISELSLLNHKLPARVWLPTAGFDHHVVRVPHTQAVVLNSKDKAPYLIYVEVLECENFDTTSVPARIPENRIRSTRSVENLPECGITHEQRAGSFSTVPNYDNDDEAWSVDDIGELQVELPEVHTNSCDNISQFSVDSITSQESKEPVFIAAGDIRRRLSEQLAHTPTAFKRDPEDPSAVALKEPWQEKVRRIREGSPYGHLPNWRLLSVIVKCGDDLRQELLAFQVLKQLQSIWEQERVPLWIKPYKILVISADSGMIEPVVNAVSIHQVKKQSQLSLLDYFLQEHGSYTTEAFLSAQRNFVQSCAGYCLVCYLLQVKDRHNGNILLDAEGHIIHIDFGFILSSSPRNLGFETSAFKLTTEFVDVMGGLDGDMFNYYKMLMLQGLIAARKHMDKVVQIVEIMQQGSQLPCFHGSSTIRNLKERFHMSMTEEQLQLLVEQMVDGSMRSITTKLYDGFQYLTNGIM
Procedure, shortened: as §1

NEK2 = NEK2 (Homo sapiens (Human), UniProt P51955); assay: KINATIV assay; assay type: cell-based; details: 1 μM, 90 minutes, BCWM.1 cells
Procedure, shortened: as §1

YSK1 = YSK1 (Homo sapiens (Human), UniProt O00506); assay: KINATIV assay; assay type: cell-based; details: 1 μM, 90 minutes, BCWM.1 cells
Procedure, shortened: as §1

MAP3K1 = MAP3K1 (Homo sapiens (Human), UniProt Q13233); assay: KINATIV assay; assay type: cell-based; details: 1 μM, 90 minutes, BCWM.1 cells
Procedure, shortened: as §1

RSK3 domain1 = RSK3 domain1 (Homo sapiens (Human), UniProt Q15349); assay: KINATIV assay; assay type: cell-based; details: 1 μM, 90 minutes, BCWM.1 cells
Procedure, shortened: as §1

HPK1 = HPK1 (Homo sapiens (Human), UniProt Q92918); assay: KINATIV assay; assay type: cell-based; details: 1 μM, 90 minutes, BCWM.1 cells
Sequence of HPK1 (Q92918 whole entry): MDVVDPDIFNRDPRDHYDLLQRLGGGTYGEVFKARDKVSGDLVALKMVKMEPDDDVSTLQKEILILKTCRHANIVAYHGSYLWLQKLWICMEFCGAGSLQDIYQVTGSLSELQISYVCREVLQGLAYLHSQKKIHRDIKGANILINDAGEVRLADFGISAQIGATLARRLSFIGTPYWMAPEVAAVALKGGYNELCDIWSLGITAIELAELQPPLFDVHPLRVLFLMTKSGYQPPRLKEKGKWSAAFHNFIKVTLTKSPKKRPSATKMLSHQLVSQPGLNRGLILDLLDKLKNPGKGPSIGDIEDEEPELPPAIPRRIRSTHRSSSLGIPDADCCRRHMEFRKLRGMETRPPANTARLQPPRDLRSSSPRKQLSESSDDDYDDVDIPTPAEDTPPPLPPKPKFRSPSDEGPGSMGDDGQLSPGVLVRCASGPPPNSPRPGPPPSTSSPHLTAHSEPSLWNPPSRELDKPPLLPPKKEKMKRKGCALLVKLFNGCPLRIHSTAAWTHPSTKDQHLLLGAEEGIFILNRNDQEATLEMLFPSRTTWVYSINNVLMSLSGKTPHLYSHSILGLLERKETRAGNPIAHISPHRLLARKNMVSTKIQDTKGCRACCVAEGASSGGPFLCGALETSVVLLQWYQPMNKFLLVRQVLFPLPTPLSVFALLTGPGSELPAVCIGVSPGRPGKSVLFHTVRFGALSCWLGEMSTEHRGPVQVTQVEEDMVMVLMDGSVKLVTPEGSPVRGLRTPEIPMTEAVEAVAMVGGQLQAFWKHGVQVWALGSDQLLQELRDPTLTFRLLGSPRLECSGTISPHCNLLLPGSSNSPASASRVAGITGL
Procedure, shortened: as §1

RSK1 domain2 = RSK1 domain2 (Homo sapiens (Human), UniProt Q15418); assay: KINATIV assay; assay type: cell-based; details: 1 μM, 90 minutes, BCWM.1 cells
Procedure, shortened: as §1

PKD1, PKD2 = assay: KINATIV assay; assay type: cell-based; details: 1 μM, 90 minutes, BCWM.1 cells
Procedure, shortened: as §1

PKN1 = PKN1 (Homo sapiens (Human), UniProt Q16512); assay: KINATIV assay; assay type: cell-based; details: 1 μM, 90 minutes, BCWM.1 cells
Procedure, shortened: as §1

SNRK = SNRK (Homo sapiens (Human), UniProt Q9NRH2); assay: KINATIV assay; assay type: cell-based; details: 1 μM, 90 minutes, BCWM.1 cells
Sequence of SNRK (Q9NRH2 whole entry): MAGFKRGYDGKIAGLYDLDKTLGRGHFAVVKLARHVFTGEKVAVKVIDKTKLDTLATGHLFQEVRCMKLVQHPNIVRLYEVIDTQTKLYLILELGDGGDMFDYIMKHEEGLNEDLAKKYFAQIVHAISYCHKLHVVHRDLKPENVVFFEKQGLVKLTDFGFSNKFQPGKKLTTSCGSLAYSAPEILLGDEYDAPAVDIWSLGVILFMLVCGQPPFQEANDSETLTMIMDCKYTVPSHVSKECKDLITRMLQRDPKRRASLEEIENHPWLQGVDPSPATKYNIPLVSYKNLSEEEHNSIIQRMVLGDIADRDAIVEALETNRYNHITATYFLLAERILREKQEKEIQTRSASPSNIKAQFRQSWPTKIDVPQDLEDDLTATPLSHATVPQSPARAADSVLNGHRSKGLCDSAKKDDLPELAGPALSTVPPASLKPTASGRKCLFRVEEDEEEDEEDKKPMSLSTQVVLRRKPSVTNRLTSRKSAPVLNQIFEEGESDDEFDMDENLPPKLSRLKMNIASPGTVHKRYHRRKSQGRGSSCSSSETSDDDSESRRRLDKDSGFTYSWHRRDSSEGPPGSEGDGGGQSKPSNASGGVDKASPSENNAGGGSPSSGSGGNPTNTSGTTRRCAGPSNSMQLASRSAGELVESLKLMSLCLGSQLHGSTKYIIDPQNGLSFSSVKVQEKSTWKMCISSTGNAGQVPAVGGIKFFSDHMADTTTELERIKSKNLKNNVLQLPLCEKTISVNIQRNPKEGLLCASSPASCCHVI
Procedure, shortened: as §1

Sequence of broad panel of kinases (Homo sapiens, UniProt P22607, G697C) (P22607 23-806 G697C limits assumed): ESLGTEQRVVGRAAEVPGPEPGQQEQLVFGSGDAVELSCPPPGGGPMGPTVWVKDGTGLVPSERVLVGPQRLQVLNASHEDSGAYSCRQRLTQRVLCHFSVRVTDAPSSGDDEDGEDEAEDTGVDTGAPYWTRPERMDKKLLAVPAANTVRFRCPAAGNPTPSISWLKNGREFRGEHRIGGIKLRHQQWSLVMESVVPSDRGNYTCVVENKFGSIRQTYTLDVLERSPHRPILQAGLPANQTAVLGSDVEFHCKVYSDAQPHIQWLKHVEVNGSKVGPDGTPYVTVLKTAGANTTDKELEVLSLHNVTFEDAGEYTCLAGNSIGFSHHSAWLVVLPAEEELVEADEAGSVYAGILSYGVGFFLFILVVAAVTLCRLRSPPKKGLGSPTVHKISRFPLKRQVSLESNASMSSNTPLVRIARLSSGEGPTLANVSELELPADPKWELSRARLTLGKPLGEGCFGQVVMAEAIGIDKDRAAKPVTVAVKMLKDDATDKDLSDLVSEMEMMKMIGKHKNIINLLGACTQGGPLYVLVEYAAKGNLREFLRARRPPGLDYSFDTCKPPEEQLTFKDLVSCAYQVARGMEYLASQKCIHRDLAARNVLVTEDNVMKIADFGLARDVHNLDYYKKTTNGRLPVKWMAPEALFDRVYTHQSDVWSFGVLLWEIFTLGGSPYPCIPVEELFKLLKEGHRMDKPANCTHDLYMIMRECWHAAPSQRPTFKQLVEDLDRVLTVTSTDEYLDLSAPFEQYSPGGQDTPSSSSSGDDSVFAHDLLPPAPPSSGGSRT

SMILES: C=CC(=O)N1CC[C@H](Nc2nc(CN3CCOCC3)cc(Nc3ncc(C(=O)Nc4c(C)cccc4C)s3)n2)C1 [Example I-2]
- percent of control binding remaining (lower = stronger binding) (broad panel of kinases [1]): 0.6%
- percent of control binding remaining (lower = stronger binding) (broad panel of kinases [2]): 100%

SMILES: C=CC(=O)N1CC[C@H](Nc2nccc(Nc3ncc(C(=O)Nc4c(C)cccc4C)s3)n2)C1 [Example I-3]
- percent of control binding remaining (lower = stronger binding) (broad panel of kinases [1]): 0.7%
- % change compared to control (broad panel of kinases [2]): 99%

SMILES: C=CC(=O)N1CCCCC(Nc2nccc(Nc3ncc(C(=O)Nc4c(C)cccc4C)s3)n2)C1 (stereo not drawn) [Example I-7]
- % change of MS signal compared to control sample (AMPKa1): 2.7%
- % change of MS signal compared to control sample (PEK): 2.6%
- % change of MS signal compared to control sample (BARK1): −29.7%
- % change of MS signal compared to control sample (MAP3K2): 4.9%
- % change of MS signal compared to control sample (FGR): 94.7%
- % change of MS signal compared to control sample (ZC2/TNIK): −1.5%
- % change of MS signal compared to control sample (MST4, YSK1): 12.7%
- % change of MS signal compared to control sample (CDK11, CDK8): −3.5%
- % change of MS signal compared to control sample (MAST1, MAST2): −35.0%
- % change of MS signal compared to control sample (MAP3K2, MAP3K3): 15.6%
- % change of MS signal compared to control sample (PI4KA, PI4KAP2): −17.4%
- % change of MS signal compared to control sample (SRC): >90%
- % change of MS signal compared to control sample (MST1): 3.0%
- % change of MS signal compared to control sample (FYN, SRC, YES): 98.4%
- % change of MS signal compared to control sample (CDK9): −37.0%
- % change of MS signal compared to control sample (NEK7): 10.0%
- % change of MS signal compared to control sample (MST4): 11.6%
- % change of MS signal compared to control sample (RSK2 domain2): −0.3%
- % change of MS signal compared to control sample (JAK1): 7.5%
- % change of MS signal compared to control sample (CDK4): 16.7%
- % change of MS signal compared to control sample (GSK3B): −1.9%
- % change of MS signal compared to control sample (CASK): 37.7%
- % change of MS signal compared to control sample (LYN): >97% and >90%
- % change of MS signal compared to control sample (p70S6Kb): −42.7%
- % change of MS signal compared to control sample (SRPK1, SRPK2): 17.3%
- % change of MS signal compared to control sample (MLK3): −4.6%
- % change of MS signal compared to control sample (ABL, ARG): >90% and >97%
- % change of MS signal compared to control sample (PIK3CD): −19.1%
- % change of MS signal compared to control sample (PI4KB): 36.0% and 35.3%
- % change of MS signal compared to control sample (NEK2): 8.5%
- % change of MS signal compared to control sample (YSK1): −19.9%
- % change of MS signal compared to control sample (MAP3K1): 7.9%
- % change of MS signal compared to control sample (RSK3 domain1): −48.6%
- % change of MS signal compared to control sample (HPK1): 23.4% and 19.8%
- % change of MS signal compared to control sample (RSK1 domain2): 4.9%
- % change of MS signal compared to control sample (PKD1, PKD2): −8.3%
- % change of MS signal compared to control sample (PKN1): 4.2%
- % change of MS signal compared to control sample (SNRK): 40.7% and 58.7%

From patent publication US10844077B2, “Thiazolyl-containing compounds for treating proliferative diseases” (Dana-Farber Cancer Institute, Inc., priority 2014, dated 2020)
